In patent publication US7041698B2, “Hepatitis C virus inhibitors” (Bristol-Myers Squibb Company, priority 2002, dated 2006):
Read-outs that look alike come from different tables or passages of the source.

Key:
[1] = target: T1, HCV NS3/4A protease complex (UniProt P27958, C1454S/C1711G, species not given); assay: Recombinant HCV NS3/4A protease complex FRET peptide assay (strain not stated); assay type: biochemical
T1 construct: fused on or other part: Three-lysine solubilising tail at the C-terminus of NS4A

[2] = test system: HCV replicon in Huh7 cells; assay: HCV replicon cell-based assay; set-up: species or system HCV strain 1B; conditions: Hepatitis C virus, Huh-7, 96 h, HCV replicon, 4 days, read-out: EC50 range
Method in brief: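 Huh7 cells carrying a genotype 1b subgenomic replicon (NS3-NS5B, neo) treated 4 days at 37° C with compound (0.5% DMSO final). NS3 protease activity read in lysates with 10 μM FRET peptide (340/490 nm, kinetic), giving EC50. Confirmed by Taqman qRT-PCR of HCV RNA and a Renilla luciferase replicon.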

[3] = HCV NS3/4A protease enzyme assay, read-out: IC50 range
[4] = read-out: IC50 range, HCV NS3/4A protease enzyme assay

SMILES	IC50 [1, 3] [nM]	EC50 [2] [nM]	IC50 [1, 4] [nM]
C=CC1C[C@]1(NC(=O)[C@@H]1C[C@@H](OC(=O)Nc2cccc(C)c2C)CN1C(=O)[C@@H](NC(=O)OC(C)(C)C)C(C)(C)C)C(=O)NS(=O)(=O)C1CC1 (stereo partly drawn) [Compound 42, BocNH-P3(t-BuGly)-P2(Hyp(O—CO(NH—(2,3-Dimethyl-phenyl))))-P1(1R,2S VinylAcca)—CONHSO2Cyclopropane]	< 100	1000 to 10000	–
C=CC1C[C@]1(NC(=O)[C@@H]1C[C@@H](OC(=O)N[C@@H]2C[C@H]2c2ccccc2)CN1C(=O)[C@@H](NC(=O)OC(C)(C)C)C(C)(C)C)C(=O)NS(=O)(=O)C1CC1 (stereo partly drawn) [Compound 3, BocNH-P3(t-BuGly)-P(Hyp(O—CO(NH-2(trans)-phenylcyclopropyl)))-P1(1R,2S VinylAcca)—CONHSO2Cyclopropane]	< 100	1000 to 10000	–
C=CC1C[C@]1(NC(=O)[C@@H]1C[C@@H](OC(=O)NC2CCCCC2)CN1C(=O)[C@@H](NC(=O)OC(C)(C)C)C(C)(C)C)C(=O)NS(=O)(=O)C1CC1 (stereo partly drawn) [Compound 6, BocNH-P3(t-BuGly)-P2(Hyp(O—CO(NH-cyclohexyl)))-P1(1R,2S VinylAcca)—CONHSO2Cyclopropane]	< 100	1000 to 10000	–
C=CC1C[C@]1(NC(=O)[C@@H]1C[C@@H](OC(=O)Nc2ccccc2-n2nccn2)CN1C(=O)[C@@H](NC(=O)OC(C)(C)C)C(C)(C)C)C(=O)NS(=O)(=O)C1CC1 (stereo partly drawn) [Compound 93, BocNH-P3(t-BuGly)-P2(Hyp(O—CO(NH—(2-[1,2,3]Triazol-2-yl-phenyl))))-P1(1R,2S VinylAcca)—CONHSO2Cyclopropane]	< 100	100 to 1000	–
C=CC1C[C@]1(NC(=O)[C@@H]1C[C@@H](OC(=O)N(C)C)CN1C(=O)[C@@H](NC(=O)OC(C)(C)C)C(C)(C)C)C(=O)NS(=O)(=O)C1CC1 (stereo partly drawn) [Compound 43, BocNH-P3(t-BuGly)-P2(Hyp(O—CO(N,N-dimethyl)))-P1(1R,2S VinylAcca)—CONHSO2Cyclopropane]	–	> 10000	100 to 1000
C=CC1C[C@]1(NC(=O)[C@@H]1C[C@@H](OC(=O)Nc2ccccn2)CN1C(=O)[C@@H](NC(=O)OC(C)(C)C)C(C)(C)C)C(=O)NS(=O)(=O)C1CC1 (stereo partly drawn) [Compound 75, BocNH-P3(t-BuGly)-P2(Hyp(O—CO(NH—(pyridin-2-yl))))-P1(1R,2S VinylAcca)—CONHSO2Cyclopropane]	100 to 1000	> 10000	–
C=CC1C[C@]1(NC(=O)[C@@H]1C[C@@H](OC(=O)Nc2ccccc2N2CCCCC2)CN1C(=O)[C@@H](NC(=O)OC(C)(C)C)C(C)(C)C)C(=O)NS(=O)(=O)C1CC1 (stereo partly drawn) [Compound 90, BocNH-P3(t-BuGly)-P2(Hyp(O—CO(NH—(2-Piperidin-1-yl-phenyl))))-P1(1R,2S VinylAcca)—CONHSO2Cyclopropane]	< 100	< 100	–
C=CC1C[C@]1(NC(=O)[C@@H]1C[C@@H](OC(=O)Nc2ncccc2C(=O)OCC)CN1C(=O)[C@@H](NC(=O)OC(C)(C)C)C(C)(C)C)C(=O)NS(=O)(=O)C1CC1 (stereo partly drawn) [Compound 72, BocNH-P3(t-BuGly)-P2(Hyp(O—CO(NH-2-(nicotinic acid ethyl ester))))-P1(1R,2S VinylAcca)—CONHSO2Cyclopropane]	< 100	1000 to 10000	–
C=CC1C[C@]1(NC(=O)[C@@H]1C[C@@H](OC(=O)N(C(C)C)C(C)C)CN1C(=O)[C@@H](NC(=O)OC(C)(C)C)C(C)(C)C)C(=O)NS(=O)(=O)C1CC1 (stereo partly drawn) [Compound 45, BocNH-P3(t-BuGly)-P2(Hyp(O—CO(N,N-diisopropyl)))-P1(1R,2S VinylAcca)—CONHSO2Cyclopropane]	–	100 to 1000	< 100
C=CC1C[C@]1(NC(=O)[C@@H]1C[C@@H](OC(=O)NCCc2ccccc2)CN1C(=O)[C@@H](NC(=O)OC(C)(C)C)C(C)(C)C)C(=O)NS(=O)(=O)C1CC1 (stereo partly drawn) [Compound 7, BocNH-P3(t-BuGly)-P2(Hyp(O—CO(NH-phenethyl)))-P1(1R,2S VinylAcca)—CONHSO2Cyclopropane]	–	1000 to 10000	100 to 1000
C=CC1C[C@]1(NC(=O)[C@@H]1C[C@@H](OC(=O)Nc2ccccc2I)CN1C(=O)[C@@H](NC(=O)OC(C)(C)C)C(C)(C)C)C(=O)NS(=O)(=O)C1CC1 (stereo partly drawn) [Compound 65, BocNH-P3(t-BuGly)-P2(Hyp(O—CO(NH—(2-iodo-phenyl))))-P1(1R,2S VinylAcca)—CONHSO2Cyclopropane]	< 100	100 to 1000	–
C=CC1C[C@]1(NC(=O)[C@@H]1C[C@@H](OC(=O)Nc2ccccc2C(=O)c2ccccc2)CN1C(=O)[C@@H](NC(=O)OC(C)(C)C)C(C)(C)C)C(=O)NS(=O)(=O)C1CC1 (stereo partly drawn) [Compound 74, BocNH-P3(t-BuGly)-P2(Hyp(O—CO(NH—(2-benzophenone))))-P1(1R,2S VinylAcca)—CONHSO2Cyclopropane]	< 100	100 to 1000	–
C=CC1C[C@]1(NC(=O)[C@@H]1C[C@@H](OC(=O)Nc2cc(C)ccc2-c2nccs2)CN1C(=O)[C@@H](NC(=O)OC(C)(C)C)C(C)(C)C)C(=O)NS(=O)(=O)C1CC1 (stereo partly drawn) [Compound 94, BocNH-P3(t-BuGly)-P2(Hyp(O—CO(NH—(5-Methyl-2-thiazol-2-yl-phenyl))))-P1(1R,2S VinylAcca)—CONHSO2Cyclopropane]	< 100	< 100	–
C=CC1C[C@]1(NC(=O)[C@@H]1C[C@@H](OC(=O)Nc2cc(C)cc(C)c2)CN1C(=O)[C@@H](NC(=O)OC(C)(C)C)C(C)(C)C)C(=O)NS(=O)(=O)C1CC1 (stereo partly drawn) [Compound 50, BocNH-P3(t-BuGly)-P2(Hyp(O—CO(NH—(3,5-dimethyl-phenyl))))-P1(1R,2S VinylAcca)—CONHSO2Cyclopropane]	< 100	1000 to 10000	–
C=CC1C[C@]1(NC(=O)[C@@H]1C[C@@H](OC(=O)Nc2ccccc2C(C)=O)CN1C(=O)[C@@H](NC(=O)OC(C)(C)C)C(C)(C)C)C(=O)NS(=O)(=O)C1CC1 (stereo partly drawn) [Compound 79, BocNH-P3(t-BuGly)-P2(Hyp(O—CO(NH—(2-acetophenone))))-P1(1R,2S VinylAcca)—CONHSO2Cyclopropane]	< 100	100 to 1000	–
C=CC1C[C@]1(NC(=O)[C@@H]1C[C@@H](OC(=O)Nc2cc(Cl)ccc2C)CN1C(=O)[C@@H](NC(=O)OC(C)(C)C)C(C)(C)C)C(=O)NS(=O)(=O)C1CC1 (stereo partly drawn) [Compound 20, BocNH-P3(t-BuGly)-P(Hyp(O—CO(NH—(5-chloro-2-methyl-phenyl))))-P1(1R,2S VinylAcca)—CONHSO2Cyclopropane]	< 100	1000 to 10000	–
C=CC1C[C@]1(NC(=O)[C@@H]1C[C@@H](OC(=O)Nc2ccccc2-c2nnc[nH]2)CN1C(=O)[C@@H](NC(=O)OC(C)(C)C)C(C)(C)C)C(=O)NS(=O)(=O)C1CC1 (stereo partly drawn) [Compound 88, BocNH-P3(t-BuGly)-P2(Hyp(O—CO(NH—(2-(4H-[1,2,4]Triazol-3-yl)-phenyl))))-P1(1R,2S VinylAcca)—CONHSO2Cyclopropane]	< 100	> 10000	–
C=CC1C[C@]1(NC(=O)[C@@H]1C[C@@H](OC(=O)Nc2cccc(SC)c2)CN1C(=O)[C@@H](NC(=O)OC(C)(C)C)C(C)(C)C)C(=O)NS(=O)(=O)C1CC1 (stereo partly drawn) [Compound 37, BocNH-P3(t-BuGly)-P2(Hyp(O—CO(NH—(3-methylsulfanyl-phenyl))))-P1(1R,2S VinylAcca)—CONHSO2Cyclopropane]	< 100	1000 to 10000	–
C=C[C@@H]1C[C@]1(NC(=O)[C@@H]1C[C@@H](OC(=O)N2CCc3ccccc3C2)CN1C(=O)[C@@H](NCC1CC1)C(C)(C)C)C(=O)NS(=O)(=O)C1CC1 [Compound 101]	< 100	1000 to 10000	–
C=CC1C[C@]1(NC(=O)[C@@H]1C[C@@H](OC(=O)Nc2sc3c(c2C(=O)OCC)CCCC3)CN1C(=O)[C@@H](NC(=O)OC(C)(C)C)C(C)(C)C)C(=O)NS(=O)(=O)C1CC1 (stereo partly drawn) [Compound 49, BocNH-P3(t-BuGly)-P2(Hyp(O—CO(NH-2-(4,5,6,7-tetrahydro-benzo[b]thiophene-3-carboxylic acid ethyl ester))))-P1(1R,2S VinylAcca)—CONHSO2Cyclopropane]	100 to 1000	1000 to 10000	–
C=CC1C[C@]1(NC(=O)[C@@H]1C[C@@H](OC(=O)Nc2ccccc2OC)CN1C(=O)[C@@H](NC(=O)OC(C)(C)C)C(C)(C)C)C(=O)NS(=O)(=O)C1CC1 (stereo partly drawn) [Compound 55, BocNH-P3(t-BuGly)-P2(Hyp(O—CO(NH—(2-methoxy-phenyl))))-P1(1R,2S VinylAcca)—CONHSO2Cyclopropane]	< 100	100 to 1000	–
C=CC1C[C@]1(NC(=O)[C@@H]1C[C@@H](OC(=O)N(CCCC)CCCC)CN1C(=O)[C@@H](NC(=O)OC(C)(C)C)C(C)(C)C)C(=O)NS(=O)(=O)C1CC1 (stereo partly drawn) [Compound 46, BocNH-P3(t-BuGly)-P2(Hyp(O—CO(N,N-dibutyl)))-P1(1R,2S VinylAcca)—CONHSO2Cyclopropane]	100 to 1000	1000 to 10000	–
C=CC1C[C@]1(NC(=O)[C@@H]1C[C@@H](OC(=O)Nc2ccccc2C(C)(C)C)CN1C(=O)[C@@H](NC(=O)OC(C)(C)C)C(C)(C)C)C(=O)NS(=O)(=O)C1CC1 (stereo partly drawn) [Compound 17, BocNH-P3(t-BuGly)-P2(Hyp(O—CO(NH—(2-tert-butyl-phenyl))))-P1(1R,2S VinylAcca)—CONHSO2Cyclopropane]	100 to 1000	1000 to 10000	–
C=CC1C[C@]1(NC(=O)[C@@H]1C[C@@H](OC(=O)Nc2ccccc2N2CCOCC2)CN1C(=O)[C@@H](NC(=O)OC(C)(C)C)C(C)(C)C)C(=O)NS(=O)(=O)C1CC1 (stereo partly drawn) [Compound 82, BocNH-P3(t-BuGly)-P2(Hyp(O—CO(NH-2-(morpholin-4-yl-phenyl))))-P1(1R,2S VinylAcca)—CONHSO2Cyclopropane]	< 100	100 to 1000	–
C=CC1C[C@]1(NC(=O)[C@@H]1C[C@@H](OC(=O)n2c3ccccc3c3ccccc32)CN1C(=O)[C@@H](NC(=O)OC(C)(C)C)C(C)(C)C)C(=O)NS(=O)(=O)C1CC1 (stereo partly drawn) [Compound 32, BocNH-P3(t-BuGly)-P2(Hyp(O—CO(N-(9-carbazolyl))))-P1(1R,2S VinylAcca)—CONHSO2Cyclopropane]	< 100	< 100	–
